Six compounds from patent publication US20240279278A1, “NMU RECEPTOR 2 AGONISTS” (Boehringer Ingelheim International GmbH, priority 2023, published 2024) can be followed below.

One data set concerns the target T1, human NMUR1 receptor (Homo sapiens, UniProt Q9HB89).
T1 construct: host or cells: CHO-K1
T1 sequence (Q9HB89 24-426 limits assumed): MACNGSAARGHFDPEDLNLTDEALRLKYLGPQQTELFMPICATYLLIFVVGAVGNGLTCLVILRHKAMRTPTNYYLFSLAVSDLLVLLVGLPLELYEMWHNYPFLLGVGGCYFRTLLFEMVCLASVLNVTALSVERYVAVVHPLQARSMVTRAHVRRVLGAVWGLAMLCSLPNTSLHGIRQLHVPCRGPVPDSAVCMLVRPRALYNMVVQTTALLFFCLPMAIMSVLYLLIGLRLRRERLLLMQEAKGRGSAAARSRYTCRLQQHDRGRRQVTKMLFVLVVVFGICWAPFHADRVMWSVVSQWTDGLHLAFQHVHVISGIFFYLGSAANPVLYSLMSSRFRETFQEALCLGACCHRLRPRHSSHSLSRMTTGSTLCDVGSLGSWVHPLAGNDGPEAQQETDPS
As to the kind of experiment: Radioligand binding competition assay (RLB), human NMUR1 receptor binding (SPA, [125I]-Neuromedin U-25). The note with it: CHO-K1 hNMUR1 cell membranes, 4 hours at RT. The source says:
Example 2: Radioligand Binding Competition Assay (RLB) Human NMUR1 Receptor Binding 1) Membranes The test is based on membranes prepared from a human NMUR1/Apoaequorin Stable Cell Line (Creative Biogene, Cat. No. CSC-RG1308). Cell Line Description: CHO-NMUR1 cell line is clonally-derived from a CHO-K1 cell line, which has been transfected with a bicistronic expression plasmid containing the sequence coding for the human neuromedin U receptor 1 (NM_006056.4, 180 to 1391). Mosaic-ID: CL16550614 Membrane preparation: Cells were broken by nitrogen cavitation (900 psi, 1 hour). Intact cells were removed by centrifugation (400 rcf, 10 minutes, 4° C.) before the crude membrane fraction was collected by ultracentrifugation (20.000 rcf, 1 hour, 4° C.). 2) Human NMUR1 Receptor Binding Assay (Radioligand: [125l]-Neuromedin U-25) In this Scintillation Proximity Assay (SPA) design, the membranes immobilize directly to the PVT-WGA-PEI type A beads (polyethyleneimine treated polyvinyltoluene beads coupled to wheatgerm agglutinin, Perkin Elmer) via interactions of wheat germ agglutinate and glycosylated membrane structures. Thereby the radioactively la-belled ligand, bound to NMUR1 receptors on the membrane, comes in close proximity to the solid scintillator of the PVT bead. Radioactive human neuromedin U-25 then stimulates the scintillant to emit light. In contrast, radioligand not bound to the receptor is too distant from the bead to elicit a signal. For the Scintillation Proximity Assay the CHO-K1 hNMUR1 cell membranes and SPA-beads are diluted to concentrations, which assure a robust signal to background ratio. The SPA incubation buffer consists of 25 mM Hepes (pH=7.0), 5 mM MgCl2, 1 mM CaCl2, 10 ug/mL Saponine and 0.1% bovine serum albumin and is used for all dilutions. Final assay setup in 96-well plate: 20 μL of 10× test compound dilutions+40 μL of 5× [125l]-Neuromedin U-25 (1× approx. 30 pM; 2000 μCi/mmol (μCi=microcurie))+60 μL membrane dilution (approx. 1.0 μg membrane protein)+80 μL SPA bead dilution (250 μg). The assay is incubated for 4 hours at RT, including controls for specific binding where no displacer is added and non-specific binding by adding unlabeled hNMU-25 at 100 nM. Bound radioactivity is determined by scintillation counting (MicroBeta Trilux 1450, Perkin Elmer, detection of 125I decay). […] The system assumes one binding site with no relevant radioligand depletion (<10%) and that the binding is reversible and at equilibrium. [formula] [formula]

The next data set can be described thus: physchem. The class given is physicochemical. Particulars: pH 7.5. As for the experimental part:
Example 6: Solubility Determination
Peptides (as TFA-salts) were weighed out in a filter unit (Mini-UniPrep Syringeless Filter 0.45 μm, Whatman PVDF), and 0.1 M phosphate buffer at pH 6 to 8 was added to achieve 10 mg/mL final peptide concentration. The peptides were dissolved by shaking the filter units horizontally at 350 rpm for 2 hours at room temperature. Samples were then filtered to remove any insoluble particles. Controls were prepared by weighing out the corresponding peptide solid material and dissolving it in an appropriate vehicle (e.g. buffer or DMSO) to a final concentration of 1 mg/mL. Both, the control and sample were analyzed by reversed phase chromatography. The area under the peak of the sample was compared to the control and the solubility was calculated based on that ratio. The pH was measured and recorded for each sample.

Another data set addresses human NMUR2 receptor (Homo sapiens, UniProt Q9GZQ4). As to the kind of experiment: IP1 Gq HTRF assay, activation of human NMUR2 in human plasma. Also noted: expressed in transfected cells; host or cells: CHO-K1. Particulars: CHO-K1 cells expressing human NMUR2, 100% human plasma; read-out: EC50 (hNMUR2) human plasma. It is filed as cell-based. In a few lines:
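CHO-K1 cells stably expressing human NMUR2 exposed to peptide agonists (8-point dose-response) in 100% human plasma with 50 mM LiCl, 1% DMSO, for 1 h at 37° C. IP1 accumulation read by HTRF competition (665/620 nm ratio). EC50 from 4-parameter sigmoidal fit.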

≈ marks a conversion by molar mass, not a printed value. Residues, ends and D or L forms follow the SMILES beside them. Where only a bound is given, the exact number is not on record here.

human NMUR2 receptor, sequence (Q9GZQ4 whole entry): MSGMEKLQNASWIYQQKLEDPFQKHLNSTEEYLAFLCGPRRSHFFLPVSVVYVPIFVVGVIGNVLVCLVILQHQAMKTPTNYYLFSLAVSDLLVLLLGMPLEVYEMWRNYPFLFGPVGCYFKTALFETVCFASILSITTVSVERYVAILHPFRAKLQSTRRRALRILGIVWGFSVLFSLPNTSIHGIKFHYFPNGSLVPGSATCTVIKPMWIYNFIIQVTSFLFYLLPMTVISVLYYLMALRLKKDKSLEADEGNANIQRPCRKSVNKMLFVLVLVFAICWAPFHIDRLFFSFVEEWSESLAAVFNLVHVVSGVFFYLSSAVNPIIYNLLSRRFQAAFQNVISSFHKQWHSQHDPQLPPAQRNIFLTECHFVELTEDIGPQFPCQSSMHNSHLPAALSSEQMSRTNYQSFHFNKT

Consider `CCCC[C@H](NC(=O)[C@H](CC(C)C)N(C)C(=O)[C@H](Cc1ccccc1)NC(=O)[C@H](Cc1ccc(O)cc1)NC(=O)CN1CCN(CCNC(=O)CN(C)C(=O)CN(C)C(=O)CN(C)C(=O)CN(C)C(=O)CN(C)C(=O)CN(C)C(=O)CN(C)C(=O)CN(C)C(=O)CN(C)C(=O)CN(C)C(=O)CN(C)C(=O)CN(C)C(=O)CN(C)C(=O)CN(C)C(=O)CN(C)C(=O)CC[C@H](NC(=O)CC[C@H](NC(=O)CC[C@H](NC(=O)CCCCCCCCCCCCCCCCCCC(=O)O)C(=O)O)C(=O)O)C(=O)O)CC1)C(=O)N[C@@H](CCCN)C(=O)N1CCC[C@H]1C(=O)N[C@@H](CCCNC(=N)N)C(=O)NCC(N)=O` [Compound 1, C20DA-gGlu3-Sar15-AEPipAc-Tyr-Phe-NMeLeu-Nle-Orn-Pro-Arg-Gly-NH2] (HELM PEPTIDE1{[O=C(O)CCCCCCCCCCCCCCCCCCC(=O)[*:2]].[gGlu].[gGlu].[gGlu].[Sar].[Sar].[Sar].[Sar].[Sar].[Sar].[Sar].[Sar].[Sar].[Sar].[Sar].[Sar].[Sar].[Sar].[Sar].[O=C(CN1CCN(CCN[*:1])CC1)[*:2]].Y.F.[meL].[Nle].[Orn].P.R.G.[am]}$$$$V2.0), for which, at human NMUR1 receptor, the Ki is over 10000 nM. Also, in “physchem”, the solubility at 2 h worked out at 8200 µg/mL (≈ 2790 µM). In addition, the concentration for a half-maximal effect (EC50) at human NMUR2 receptor turned out to be 2.8 nM.
Regarding `CCCC[C@H](NC(=O)[C@H](CC(C)C)N(C)C(=O)[C@H](Cc1ccccc1)NC(=O)[C@H](Cc1ccc(O)cc1)NC(=O)CN1CCN(CCNC(=O)CN(C)C(=O)CN(C)C(=O)CN(C)C(=O)CN(C)C(=O)CN(C)C(=O)CN(C)C(=O)CN(C)C(=O)CN(C)C(=O)CN(C)C(=O)CN(C)C(=O)CN(C)C(=O)CN(C)C(=O)CN(C)C(=O)CN(C)C(=O)CN(C)C(=O)CC[C@H](NC(=O)CC[C@H](NC(=O)CC[C@H](NC(=O)CCCCCCCCCCCCCCCCCCC(=O)O)C(=O)O)C(=O)O)C(=O)O)CC1)C(=O)N[C@@H](CCCNC(=N)N)C(=O)N1CCC[C@H]1C(=O)N[C@@H](CCCNC(=N)N)C(=O)NCC(N)=O` [Compound 9, C20DA-gGlu3-Sar15-AEPipAc-Tyr-Phe-NMeLeu-Nle-Arg-Pro-Arg-Gly-NH2] (HELM PEPTIDE1{[O=C(O)CCCCCCCCCCCCCCCCCCC(=O)[*:2]].[gGlu].[gGlu].[gGlu].[Sar].[Sar].[Sar].[Sar].[Sar].[Sar].[Sar].[Sar].[Sar].[Sar].[Sar].[Sar].[Sar].[Sar].[Sar].[O=C(CN1CCN(CCN[*:1])CC1)[*:2]].Y.F.[meL].[Nle].R.P.R.G.[am]}$$$$V2.0), on human NMUR1 receptor, the Ki was over 10000 nM. For the same compound, the EC50 at human NMUR2 receptor worked out at 5.8 nM.
As to `CCCC[C@H](NC(=O)[C@H](CC(C)C)N(C)C(=O)[C@H](Cc1ccccc1)NC(=O)[C@H](Cc1ccc(O)cc1)NC(=O)CN1CCN(CCNC(=O)CN(C)C(=O)CN(C)C(=O)CN(C)C(=O)CN(C)C(=O)CN(C)C(=O)CN(C)C(=O)CN(C)C(=O)CN(C)C(=O)CN(C)C(=O)CN(C)C(=O)CN(C)C(=O)CN(C)C(=O)CN(C)C(=O)CN(C)C(=O)CN(C)C(=O)CC[C@H](NC(=O)CC[C@H](NC(=O)CC[C@H](NC(=O)CCCCCCCCCCCCCCCCCCC(=O)O)C(=O)O)C(=O)O)C(=O)O)CC1)C(=O)N[C@@H](CCCNC(=N)N)C(=O)N(C)[C@@H](C)C(=O)N[C@@H](CCCNC(=N)N)C(=O)NCC(N)=O` [Compound 10, C20DA-gGlu3-Sar15-AEPipAc-Tyr-Phe-NMeLeu-Nle-Arg-NMeAla-Arg-Gly-NH2] (HELM PEPTIDE1{[O=C(O)CCCCCCCCCCCCCCCCCCC(=O)[*:2]].[gGlu].[gGlu].[gGlu].[Sar].[Sar].[Sar].[Sar].[Sar].[Sar].[Sar].[Sar].[Sar].[Sar].[Sar].[Sar].[Sar].[Sar].[Sar].[O=C(CN1CCN(CCN[*:1])CC1)[*:2]].Y.F.[meL].[Nle].R.[meA].R.G.[am]}$$$$V2.0), on human NMUR1 receptor, the Ki is over 10000 nM. On human NMUR2 receptor, the 50% effective concentration (EC50) turned out to be 9.8 nM.
As to `CCCC[C@H](NC(=O)[C@H](CC(C)C)N(C)C(=O)[C@H](Cc1ccccc1)NC(=O)[C@H](Cc1ccc(O)cc1)NC(=O)CN1CCN(CCNC(=O)CN(C)C(=O)CN(C)C(=O)CN(C)C(=O)CN(C)C(=O)CN(C)C(=O)CN(C)C(=O)CN(C)C(=O)CN(C)C(=O)CN(C)C(=O)CN(C)C(=O)CN(C)C(=O)CN(C)C(=O)CN(C)C(=O)CN(C)C(=O)CN(C)C(=O)CC[C@H](NC(=O)CC[C@H](NC(=O)CC[C@H](NC(=O)CCCCCCCCCCCCCCCCC(=O)O)C(=O)O)C(=O)O)C(=O)O)CC1)C(=O)N[C@@H](CCCNC(=N)N)C(=O)N(C)[C@@H](C)C(=O)N[C@@H](CCCNC(=N)N)C(=O)NCC(N)=O` [Compound 11, C18DA-gGlu3-Sar15-AEPipAc-Tyr-Phe-NMeLeu-Nle-Arg-NMeAla-Arg-Gly-NH2] (HELM PEPTIDE1{[O=C(O)CCCCCCCCCCCCCCCCC(=O)[*:2]].[gGlu].[gGlu].[gGlu].[Sar].[Sar].[Sar].[Sar].[Sar].[Sar].[Sar].[Sar].[Sar].[Sar].[Sar].[Sar].[Sar].[Sar].[Sar].[O=C(CN1CCN(CCN[*:1])CC1)[*:2]].Y.F.[meL].[Nle].R.[meA].R.G.[am]}$$$$V2.0), the Ki at human NMUR1 receptor is over 10000 nM. For the same compound, the EC50 on human NMUR2 receptor was 10.6 nM.
For `CCCC[C@H](NC(=O)[C@H](CC(C)C)N(C)C(=O)[C@H](Cc1ccccc1)NC(=O)[C@H](Cc1ccc(O)cc1)NC(=O)CN1CCN(CCNC(=O)CN(C)C(=O)CN(C)C(=O)CN(C)C(=O)CN(C)C(=O)CN(C)C(=O)CN(C)C(=O)CN(C)C(=O)CN(C)C(=O)CN(C)C(=O)CN(C)C(=O)CN(C)C(=O)CN(C)C(=O)CC[C@H](NC(=O)CC[C@H](NC(=O)CC[C@H](NC(=O)CCCCCCCCCCCCCCCCC(=O)O)C(=O)O)C(=O)O)C(=O)O)CC1)C(=O)N[C@@H](CCCNC(=N)N)C(=O)N(C)[C@@H](C)C(=O)N[C@@H](CCCNC(=N)N)C(=O)NCC(N)=O` [Compound 12, C18DA-gGlu3-Sar12-AEPipAc-Tyr-Phe-NMeLeu-Nle-Arg-NMeAla-Arg-Gly-NH2], in that order: over 10000 nM and 12.9 nM.
For `CCCC[C@H](NC(=O)[C@H](CC(C)C)N(C)C(=O)[C@H](Cc1ccccc1)NC(=O)[C@H](Cc1ccc(O)cc1)NC(=O)CN1CCN(CCNC(=O)CN(C)C(=O)CN(C)C(=O)CN(C)C(=O)CN(C)C(=O)CN(C)C(=O)CN(C)C(=O)CN(C)C(=O)CN(C)C(=O)CN(C)C(=O)CC[C@H](NC(=O)CC[C@H](NC(=O)CC[C@H](NC(=O)CCCCCCCCCCCCCCCCCCC(=O)O)C(=O)O)C(=O)O)C(=O)O)CC1)C(=O)N[C@@H](CCCNC(=N)N)C(=O)N1CCC[C@H]1C(=O)N[C@@H](CCCNC(=N)N)C(=O)NCC(N)=O` [Compound 65, C20DA-gGlu3-Sar9-AEPipAc-Tyr-Phe-NMeLeu-Nle-Arg-Pro-Arg-Gly-NH2] (HELM PEPTIDE1{[O=C(O)CCCCCCCCCCCCCCCCCCC(=O)[*:2]].[gGlu].[gGlu].[gGlu].[Sar].[Sar].[Sar].[Sar].[Sar].[Sar].[Sar].[Sar].[Sar].[O=C(CN1CCN(CCN[*:1])CC1)[*:2]].Y.F.[meL].[Nle].R.P.R.G.[am]}$$$$V2.0), in that order: 722 nM and 11.7 nM.

For orientation: Ki means the equilibrium dissociation constant of an inhibitor or competing ligand from its target. Higher therefore signals weaker binding. What is called solubility is the dissolved amount per volume that the medium holds. A higher solubility goes with a readily soluble substance. By EC50 is commonly meant the concentration needed to bring the measured effect to its halfway point.
